Measured values: patent publication US20200024278A1, “COMPOSITION COMPRISING ANTIBIOTIC COMPOUND AND AN HETEROCYCLIC COMPOUND AND THEIR USE IN PREVENTING OR TREATING BACTERIAL INFECTIONS” (MUTABILIS, priority 2016, published 2020)

Experiments:
PAE UFR48 [1] = assay: MIC, broth microdilution (CLSI), substance alone or ATB combined with compound at 4 or 8 μg/mL; assay type: cell-based, P. aeruginosa; conditions: PAE UFR48; for MIC ATB combined with compound: compound @8 μg/ml
How it was run: (§1)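 Potentiation format: antibiotic dilution series run with test compound held at 4 or 8 μg/mL, alongside compound-alone MICs. Broth microdilution per CLSI in ca-MHB, 16-20 h at 35° C.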

PAE 105250 = assay: as above; assay type: cell-based, P. aeruginosa; conditions: PAE 105250; for MIC ATB combined with compound: compound @8 μg/ml
How it was run: as §1

PAE UFR90 [2] = assay: as above; assay type: cell-based, P. aeruginosa; conditions: PAE UFR90; for MIC ATB combined with compound: compound @8 μg/ml
How it was run: as §1

SAU 29213 = assay: as above; assay type: cell-based, S. aureus; conditions: for MIC ATB combined with compound: compound @8 μg/ml, SAU 29213
How it was run: as §1

PAE UFR48 [3] = assay: Fractional Inhibitory Concentration Index, checkerboard assay; assay type: cell-based, P. aeruginosa
Experimental: (§2) Method 2: Determination of the Fractional Inhibitory Concentration Index
(§3) Serial 2-fold dilutions of each antibiotic tested were prepared in ca-MHB and mixed in each well of a 96-well microtiter plate so that each row (and column) contained a fixed amount of one agent and increasing amounts of the second agent. The range of drug concentrations used in the checkerboard analysis was such that the dilution range encompassed the MIC for each drug used in the analysis. Broth microdilution plates were inoculated with each strain (Table 3) to yield 5.10^5 CFU/mL in a 100 μL final volume and incubated for 18 h at 35° C. in ambient air. Assays including Fosfomycin were supplemented with 25 μg/ml of Glucose-6-phosphate. MICs were determined after overnight incubation, and the fractional inhibitory concentration (FIC) index was calculated for each well. The FIC index (FICI) was calculated for each combination according to the equation FICI=FICa+FICb=(MIC of drug A in combination/MIC of drug A alone)+(MIC of drug B in combination/MIC of drug B alone). The FICI was interpreted as follows: synergy, FICI […]; indifference, 0.5<FIC<4; and antagonism, FICI>4. The checkerboard assays were performed in duplicate.

PAE UFR90 [4] = assay: as above; assay type: cell-based, P. aeruginosa
Experimental: as §2, §3

ECO 190317 [5] = assay: as above; assay type: cell-based, E. coli
Experimental: as §2, §3

SPN 49619 = assay: MIC, broth microdilution (CLSI), substance alone or ATB combined with compound at 4 or 8 μg/mL; assay type: cell-based, S. pneumoniae; conditions: SPN 49619; for MIC ATB combined with compound: compound @8 μg/ml
How it was run: as §1

KPN UFR42 = assay: as above; assay type: cell-based, K. pneumoniae; conditions: Klebsiella pneumoniae; substance alone; KPN UFR42; read-out: MIC
How it was run: as §1

KPN BAA-1898 = assay: as above; assay type: cell-based, K. pneumoniae; conditions: Klebsiella pneumoniae, BAA1898; substance alone; KPN BAA-1898; read-out: MIC
How it was run: as §1

ECL P99 [6] = assay: Fractional Inhibitory Concentration Index, checkerboard assay; assay type: cell-based, E. cloacae
Experimental: as §2, §3

ECL P99 [7] = assay: MIC, broth microdilution (CLSI), substance alone or ATB combined with compound at 4 or 8 μg/mL; assay type: cell-based, E. cloacae; conditions: Enterobacter cloacae; substance alone; ECL P99; read-out: MIC
How it was run: as §1

KPN UFR68 = assay: Fractional Inhibitory Concentration Index, checkerboard assay; assay type: cell-based, K. pneumoniae
Experimental: as §2, §3

ECO UFR39 = assay: MIC, broth microdilution (CLSI), substance alone or ATB combined with compound at 4 or 8 μg/mL; assay type: cell-based, E. coli; conditions: Escherichia coli; substance alone; ECO UFR39; read-out: MIC
How it was run: as §1

ECO 190317 [8] = assay: as above; assay type: cell-based, E. coli; conditions: Escherichia coli; substance alone; ECO 190317; read-out: MIC
How it was run: as §1

[9] = Pseudomonas aeruginosa, substance alone, read-out: MIC

SMILES: NCCn1c2c(sc1=O)C1CN(C2)C(=O)N1OS(=O)(=O)[O-].[Na+] (stereo not drawn) [Example 3, sodium and 2,2,2-trifluoroacetate [5-(2-azaniumethyl)-4,9-dioxo-3-thia-5,8,10-triaza-tricyclo[6.2.1.0^2,6]undec-2(6)-en-10-yl] sulfate]
- MIC ATB combined with compound (PAE UFR48 [1]; ATB ATM): 2 µg/mL
- MIC ATB combined with compound (PAE UFR48 [1]; ATB FEP): <0.031 µg/mL
- MIC ATB combined with compound (PAE UFR48 [1]; ATB FOS): 2 µg/mL
- MIC ATB combined with compound (PAE UFR48 [1]; ATB MEM): <=0.031 μg/mL
- MIC ATB combined with compound (PAE UFR48 [1]; ATB PIP): <0.031 µg/mL
- MIC (PAE UFR48 [1]; [9]): 8 µg/mL
- MIC ATB combined with compound (PAE 105250; ATB ATM): <0.031 µg/mL
- MIC ATB combined with compound (PAE 105250; ATB FEP): <0.031 µg/mL
- MIC ATB combined with compound (PAE 105250; ATB FOS): 16 µg/mL
- MIC ATB combined with compound (PAE 105250; ATB MEM): 0.063 µg/mL
- MIC ATB combined with compound (PAE 105250; ATB PIP): 0.063 µg/mL
- MIC (PAE 105250; [9]): 8 µg/mL
- MIC ATB combined with compound (PAE UFR90 [2]; ATB ATM): <0.031 µg/mL
- MIC ATB combined with compound (PAE UFR90 [2]; ATB FEP): <0.031 µg/mL
- MIC ATB combined with compound (PAE UFR90 [2]; ATB FOS): <0.125 µg/mL
- MIC ATB combined with compound (PAE UFR90 [2]; ATB MEM): <0.031 µg/mL
- MIC ATB combined with compound (PAE UFR90 [2]; ATB PIP): <0.031 µg/mL
- MIC (PAE UFR90 [2]; [9]): 8 µg/mL
- MIC ATB combined with compound (SAU 29213; ATB ATM): >32 µg/mL
- MIC ATB combined with compound (SAU 29213; ATB FEP): 1 µg/mL
- MIC ATB combined with compound (SAU 29213; ATB FOS): <=0.125 μg/mL
- MIC ATB combined with compound (SAU 29213; ATB MEM): 0.063 µg/mL
- MIC ATB combined with compound (SAU 29213; ATB PIP): 0.5 µg/mL
- MIC (SAU 29213; Staphylococcus aureus, substance alone, SAU 29213 (MSSA 29213), read-out: MIC): 32 µg/mL
- FIC index min (PAE UFR48 [3]; compound +ATM): 0.13
- FIC index min (PAE UFR48 [3]; compound +FEP): 0.50
- FIC index min (PAE UFR48 [3]; compound +FOS): 0.34
- FIC index min (PAE UFR48 [3]; compound +MEM): 0.75
- FIC index min (PAE UFR48 [3]; compound +PIP): 0.31
- FIC index min (PAE UFR90 [4]; compound +ATM): 0.75
- FIC index min (PAE UFR90 [4]; compound +FEP): 0.32
- FIC index min (PAE UFR90 [4]; compound +FOS): 0.88
- FIC index min (PAE UFR90 [4]; compound +MEM): 0.75
- FIC index min (PAE UFR90 [4]; compound +PIP): 0.63
- FIC index min (ECO 190317 [5]; compound +ATM): 0.27
- FIC index min (ECO 190317 [5]; compound +FEP): 0.19
- FIC index min (ECO 190317 [5]; compound +FOS): 0.66
- FIC index min (ECO 190317 [5]; compound +MEM): 0.56
- FIC index min (ECO 190317 [5]; compound +PIP): ≤0.5
- MIC ATB combined with compound (SPN 49619; ATB ATM): <0.031 µg/mL
- MIC ATB combined with compound (SPN 49619; ATB FEP): <0.031 µg/mL
- MIC ATB combined with compound (SPN 49619; ATB FOS): <=0.125 μg/mL
- MIC ATB combined with compound (SPN 49619; ATB MEM): <0.031 µg/mL
- MIC ATB combined with compound (SPN 49619; ATB PIP): <0.031 µg/mL
- MIC (SPN 49619; Streptococcus pneumoniae, substance alone, read-out: MIC): 1 µg/mL
- MIC (KPN UFR42): 16 µg/mL
- MIC (KPN BAA-1898): 16 µg/mL
- FIC index min (ECL P99 [6]; compound +ATM): 0.28
- FIC index min (ECL P99 [6]; compound +FEP): 0.31
- FIC index min (ECL P99 [6]; compound +FOS): ≤0.13
- FIC index min (ECL P99 [6]; compound +MEM): 0.54
- FIC index min (ECL P99 [6]; compound +PIP): 0.13
- MIC (ECL P99 [7]): 0.5 µg/mL
- FIC index min (KPN UFR68; compound +ATM): 0.049
- FIC index min (KPN UFR68; compound +FEP): 0.021
- FIC index min (KPN UFR68; compound +FOS): 0.080
- FIC index min (KPN UFR68; compound +MEM): 0.16
- FIC index min (KPN UFR68; compound +PIP): 0.10
- MIC (ECO UFR39): 0.5 µg/mL
- MIC (ECO 190317 [8]): 0.25 µg/mL
